Results taken from PubChem BioAssay (NCI).
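Compound exposure: 48 hours, 5 concentrations, 96-well plates. At the GI50, growth is halved. TGI denotes the concentration required for complete inhibition of growth.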

Columns and labels:
Test in all cases: growth of human tumour cells (NCI), 48 h
ACHN renal = system: ACHN renal
COLO 205 colon = system: COLO 205 colon
HL-60(TB) leukemia = system: HL-60(TB) leukemia
MALME-3M melanoma = system: MALME-3M melanoma
MDA-MB-231 breast = system: MDA-MB-231 breast
NCI-H23 lung = system: NCI-H23 lung
OVCAR-3 ovarian = system: OVCAR-3 ovarian
RXF 393 renal = system: RXF 393 renal
SF-295 CNS = system: SF-295 CNS
SNB-75 CNS = system: SNB-75 CNS

Row | Compound | TGI (ACHN renal) [µM] | TGI (COLO 205 colon) [µM] | TGI (HL-60(TB) leukemia) [µM] | TGI (MALME-3M melanoma) [µM] | TGI (MDA-MB-231 breast) [µM] | TGI (NCI-H23 lung) [µM] | TGI (OVCAR-3 ovarian) [µM] | TGI (RXF 393 renal) [µM] | TGI (SF-295 CNS) [µM] | TGI (SNB-75 CNS) [µM] | GI50 (HL-60(TB) leukemia) [µM] | GI50 (SNB-75 CNS) [µM] | GI50 (ACHN renal) [µM] | GI50 (MALME-3M melanoma) [µM] | GI50 (MDA-MB-231 breast) [µM] | GI50 (NCI-H23 lung) [µM] | GI50 (OVCAR-3 ovarian) [µM] | GI50 (RXF 393 renal) [µM] | GI50 (SF-295 CNS) [µM]
1 | CCCCN(c1ccccc1)c1ncnc2c1cnn2C | > 100 | > 100 | 47.6 | 77.7 | > 100 | > 100 | > 100 | 89.4 | > 100 | 55.9 | – | – | – | – | – | – | – | – | –
2 | NC(=O)CC(Nc1ncc2c(n1)-c1ccccc1OC2)C(=O)O (stereo unspecified) | > 100 | > 100 | 36.8 | > 100 | > 100 | > 100 | > 100 | > 100 | > 100 | > 100 | – | – | – | – | – | – | – | – | –
3 | CN1C2CC(=O)CC1[C@@H]1OC(c3ccccc3)O[C@H]21 (stereo partly specified) | – | > 100 | > 100 | > 100 | > 100 | > 100 | > 100 | > 100 | > 100 | > 100 | – | – | – | – | – | – | – | – | –
4 | O=C1C=CC(=O)c2ncccc21 | 7.98 | 7.64 | 2.02 | 9.78 | 8.06 | 23.6 | 4.13 | 12.8 | 23.1 | 17.2 | – | – | – | – | – | – | – | – | –
5 | COc1ccc(NC2Oc3cc4c(cc3C(c3cc(OC)c(O)c(OC)c3)C2C)OCO4)cc1 (stereo unspecified) | 32.1 | 39 | 4.51 | 35.2 | 11 | > 100 | > 100 | 61.8 | 60.5 | 15 | – | – | – | – | – | – | – | – | –
6 | CCOP(=O)(OCC)C(Nc1ccc(F)cc1)c1cccc([N+](=O)[O-])c1 (stereo unspecified) | > 100 | > 100 | > 100 | > 100 | > 100 | > 100 | > 100 | > 100 | > 100 | > 100 | – | – | – | – | – | – | – | – | –
7 | CSc1nncc(-c2cc3c(c(SC)n2)CCC3)n1 | > 100 | > 100 | > 100 | – | > 100 | > 100 | > 100 | > 100 | > 100 | > 100 | – | – | – | – | – | – | – | – | –
8 | N#CCc1nc(C#N)c(N)o1 | > 100 | > 100 | > 100 | > 100 | > 100 | > 100 | > 100 | > 100 | > 100 | > 100 | > 100 | > 100 | – | – | – | – | – | – | –
9 | CC#CC(O)(C(=O)OC1CCCN(C)C1)C1=CC=CCC1 (stereo unspecified) | > 100 | > 100 | > 100 | > 100 | > 100 | > 100 | > 100 | > 100 | > 100 | > 100 | – | – | – | – | – | – | – | – | –
10 | CCOC(=O)C(Cc1ccccc1)(Cc1ccc(O)cn1)NC(=O)c1ccccc1 (stereo unspecified) | > 100 | 68.4 | 43.8 | 48.8 | 99.6 | > 100 | 47.8 | > 100 | > 100 | > 100 | – | – | – | – | – | – | – | – | –
11 | NC(N)=N/N=C/c1nc2sccn2c1[N+](=O)[O-] | > 100 | 29.7 | 34.1 | 26.3 | 80.5 | 36.7 | 50.5 | 36.9 | > 100 | 39.5 | – | – | – | – | – | – | – | – | –
12 | CC1(C)C2CC(c3ccncc3)ON2C(C)(C)N1O (stereo unspecified) | > 100 | > 100 | > 100 | > 100 | > 100 | > 100 | > 100 | > 100 | > 100 | > 100 | – | – | – | – | – | – | – | – | –
13 | CSC(=NC1=NC(C(F)(F)F)(C(F)(F)F)N=C(c2ccccc2)O1)SC | 14.9 | 46.5 | 64 | 37.7 | 88.1 | 65.5 | 63.9 | 24.5 | > 100 | 18.9 | – | – | – | – | – | – | – | – | –
14 | N#CCCN(CCCN(C(=O)Nc1ccccc1)c1ccccc1)C(=O)Nc1ccccc1 | > 100 | > 100 | > 100 | > 100 | > 100 | > 100 | > 100 | > 100 | > 100 | > 100 | – | – | – | – | – | – | – | – | –
15 | COc1ccc(-c2c(C#N)c(-c3ccccc3)n(NS(=O)(=O)c3ccccc3)c(=O)c2C#N)cc1 | > 100 | > 100 | > 100 | > 100 | > 100 | – | – | > 100 | > 100 | > 100 | – | – | – | – | – | – | – | – | –
16 | CC1=CC[C@@H]2CC[C@]3(C)[C@H](CC[C@@H]4[C@@]5(C)CCCNC(C)(C)[C@@H]5CC[C@]43C)[C@H]2[C@@H]1C | 3.14 | – | 3.5 | 3.48 | 3.47 | 3.37 | 3.37 | 3.1 | 3.42 | 3.84 | 1.7 | 1.98 | 1.76 | 1.77 | 1.8 | 1.78 | 1.91 | 1.61 | 1.87
17 | CC1(C)[C@@H]2C[C@H]1c1cnc(-c3ccccn3)cc1C2[C@@H]1c2cc(-c3ccccn3)ncc2[C@@H]2C[C@H]1C2(C)C (stereo partly specified) | > 100 | > 100 | > 100 | > 100 | > 100 | > 100 | > 100 | > 100 | > 100 | > 100 | – | – | – | – | – | – | – | – | –
